# Assay results from patent publication US9624167B2, “N-(4-hydroxy-4-methyl-cyclohexyl)-4-phenyl-benzenesulfonamides and N-(4-hydroxy-4-methyl-cyclohexyl)-4-(2-pyridyl)benzenesulfonamides and their therapeutic use” (PIMCO 2664 LIMITED, priority 2013, dated 2017).
# Experiments:
# [1] = Maximum Tolerated Dose, Sprague-Dawley rats; conditions: rat, in vivo, oral, ascending dose
# Description: (§1) The acute safety of the compounds was assessed in rats in order to enable determination of the maximum tolerated dose (MTD), an indication of a compound's safety in animals. The higher the MTD, the greater is the potential safety of the compound being tested.
# Two male and two female Sprague-Dawley rats, aged 8-12 weeks, were dosed at each dose level in an ascending dose study design. The test compounds were administered orally as a suspension formulated in 0.5% carboxymethylcellulose (CMC)/0.1% Tween-80 in a dose volume of 10 mL/kg. Animals were given free access to food throughout the study.
# Animals were observed on at least two occasions during the first hour following dosing, approximately 30 minutes apart, and thereafter at hourly intervals for the remainder of the dosing day for at least 4 hours. […] The nature and severity, where appropriate, of the clinical signs and time were recorded at each observation. Observations included changes in the skin, fur, eyes, and mucous membranes, and also the respiratory, circulatory, autonomic, and central nervous system, as well as somatomotor activity and behaviour pattern. Particular attention was directed towards the observation of tremors, convulsions, salivation, diarrhoea, lethargy, sleep, and coma.
# (§2) At the completion of the study, the results were expressed as the maximum tolerated dose for each compound, this being the highest of each without unacceptable toxicity.
# (§3) The maximum dose without unacceptable side-effects was determined to be the MTD (expressed in mg/kg).
# B-lymphocytes = assay: Human primary leucocyte proliferation: B-lymphocytes; assay type: cell-based; conditions: 3 μM
# Description: (§4) Effects on cell viability were assessed using flow cytometry. Flow cytometry is a laser-based, biophysical technology employed in cell counting, cell sorting, and biomarker detection, by suspending cells in a stream of fluid and passing them by an electronic detection apparatus. It allows simultaneous multi-parametric analysis of the physical and chemical characteristics of up to thousands of particles per second. The sorting of cells using flow cytometry requires the use of specific cell markers. To quantify cell numbers, counting beads are used as an internal standard. Counting beads are a calibrated suspension of microbeads which are added to a known volume of sample so the sample volume per bead is known. […] In addition, for B- and T-lymphocytes, cell proliferation was measured using a dye known as Cell Proliferation Dye (eFluor® 450). eFluor® 450 is an organic dye which can be conjugated to cell-specific markers. […]
# PBMCs (peripheral blood mononuclear cells) were collected from healthy donors (all female) and isolated by centrifugation on a layer of Ficoll Paque (GE Healthcare, UK). […] Following incubation, the cells were stained with anti-human CD19, a marker of B-lymphocytes, before being analysed on a flow cytometer. […]
# (§5) The average results (n=3) for the reference compound (ABD735) were expressed as a fold change versus the average control value. […]
# CD8+ T-lymphocytes = assay: Human primary leucocyte viability: CD8+ T-lymphocytes; assay type: cell-based; conditions: 3 μM, 48 hours
# Description: The effects of the reference compound (ABD735) on the viability of neutrophils, monocytes, CD4+ and CD8+ T-cells and B-lymphocytes was assessed under both resting and stimulated conditions. Resting conditions were used to assess likely effects on normal cells found in human blood, and stimulated conditions were used to assess the effects of the compound under disease conditions.
# as §4, with “standard.” for “standard. Counting beads are a calibrated suspension of microbeads which are added to a known volume of sample so the sample volume per bead is known.”
# as §5
# [2] = Maximum Tolerated Dose, Han Wistar rats; conditions: rat, in vivo, oral
# Description: as §1, §2, §3
# [3] = test system: pristane-induced arthritis; assay: Rat Pristane-Induced Arthritis Study; assay type: in vivo; conditions: for % inhibition of disease: once daily for 28 days; for Tolerability during extended dosing: rat pristane-induced arthritis study, oral, up to 28 days
# Description: Female Lewis rats were used for all procedures. Animals were housed in groups of 5, and were maintained at 21° C.±2° C. on a 12-hour light/dark cycle with food and water ad libitum. Arthritis was induced by the administration of 0.3 mL pristane intra-dermally at the base of the tail. The rats started to develop signs and symptoms of arthritis approximately seven days after the pristane injection.
# For macroscopic assessment of arthritis, the following signs were monitored in each paw of each mouse three times per week and summed to generate the Arthritic Index (AI) (the maximum AI for one animal is 16): • 0=no visible effects of arthritis. • 1=oedema and/or erythema of 1 digit. • 2=oedema and/or erythema of 2 digits. • 3=oedema and/or erythema of more than 2 digits. • 4=severe arthritis of entire paw and digits including limb deformation and ankylosis of the joint.
# Animals were sorted into treatment groups prior to pristane administration and dosed once daily for 28 days with test compound at doses of 3 and 10 mg/kg/day by oral gavage, or by intraperitoneal injection at a dose of 0.05 mg/kg for the positive control, methotrexate. After completion of the experiment, the rats were sacrificed.
# The data were analysed by generating an average of the arthritic index across each treatment group. The mean arthritic index was then compared to the arthritic index of control (untreated) animals using the following formula to generate a percentage inhibition of disease.
# [4] = female Sprague-Dawley rats, read-out: Maximum tolerated dose, Females
# [5] = male Sprague-Dawley rats, read-out: Maximum tolerated dose, Males
SMILES,"MTD [1, 4]","MTD [1, 5]",% inhibition of disease ([3]; 3 mg/kg/day oral gavage),Tolerability during extended dosing [3],also measured
"Cc1cc(S(=O)(=O)NC2CCC(C)(O)CC2)ccc1-c1ccc(F)cc1F (single isomer, unassigned) [REF001, reference compound]",7.5 mg/kg,10 mg/kg,,,
"C[C@]1(O)CC[C@H](NS(=O)(=O)c2ccc(-c3ccc(F)cc3C(F)(F)F)cc2)CC1 [HMC-C-02-A, 4′-Fluoro-N-((1r,4r)-4-hydroxy-4-methylcyclohexyl)-2′-(trifluoromethyl)biphenyl-4-sulfonamide]",> 200 mg/kg,> 200 mg/kg,,,
"C[C@]1(O)CC[C@H](NS(=O)(=O)c2ccc(-c3c(F)cc(F)cc3F)cc2)CC1 [HMC-C-03-A, 2′,4′,6′-Trifluoro-N-((1r,4r)-4-hydroxy-4-methylcyclohexyl)biphenyl-4-sulfonamide]",30 mg/kg,30 mg/kg,,,
"C[C@]1(O)CC[C@H](NS(=O)(=O)c2ccc(-c3ncc(F)cc3F)cc2)CC1 [HMC-N-02-A, 4-(3,5-Difluoropyridin-2-yl)-N-((1r,4r)-4-hydroxy-4-methylcyclohexyl)benzenesulfonamide]",> 200 mg/kg,> 200 mg/kg,,,
Cc1cc(S(=O)(=O)N[C@H]2CC[C@H](O)CC2)ccc1-c1ccc(F)cc1F [ABD735],20 mg/kg,10 mg/kg,,,"Fold change in proliferation (B-lymphocytes; SAC/IL-2, 5 days): 0.6; Fold change in proliferation (B-lymphocytes; no stimulation, 5 days): 0.9; Fold change in viability (CD8+ T-lymphocytes; no stimulation): 0.8; Fold change in viability (CD8+ T-lymphocytes; phytohaemagglutinin): 0.7"
"C[C@]1(O)CC[C@H](NS(=O)(=O)c2ccc(-c3ccc(Cl)cc3C#N)cc2)CC1 [HMC-C-01-A, 4′-Chloro-2′-cyano-N-((1r,4r)-4-hydroxy-4-methylcyclohexyl)biphenyl-4-sulfonamide]",70 mg/kg,70 mg/kg,40%,tolerated well,"MTD ([2]; female Han Wistar rats, read-out: Maximum tolerated dose, Females): > 500 mg/kg; MTD ([2]; male Han Wistar rats, read-out: Maximum tolerated dose, Males): > 500 mg/kg; % inhibition of disease ([3]; 10 mg/kg/day oral gavage): 67%; Efficacy compared with positive control methotrexate ([3]; methotrexate 0.05 mg/kg intraperitoneal): equivalent to that of the marketed first-line therapy for rheumatoid arthritis, methotrexate"
"C[C@]1(O)CC[C@@H](NS(=O)(=O)c2ccc(-c3ccc(F)cc3F)cc2)CC1 [ABD899, reference compound]",30 mg/kg,30 mg/kg,21%,poorly tolerated,
"C[C@]1(O)CC[C@H](NS(=O)(=O)c2ccc(-c3ncc(F)cc3F)c(F)c2)CC1 [HMC-N-01-A, 4-(3,5-Difluoropyridin-2-yl)-3-fluoro-N-((1r,4r)-4-hydroxy-4-methylcyclohexyl)benzenesulfonamide]",80 mg/kg,80 mg/kg,39%,tolerated well,% inhibition of disease ([3]; 10 mg/kg/day oral gavage): 60%
"C[C@]1(O)CC[C@H](NS(=O)(=O)c2ccc(-c3ncc(Cl)cc3Cl)cc2)CC1 [HMC-N-03-A, 4-(3,5-Dichloropyridin-2-yl)-N-((1r,4r)-4-hydroxy-4-methylcyclohexyl)benzenesulfonamide]",50 mg/kg,50 mg/kg,,,
